Literature values as cited in patent publication EP0306335A1, “Analysis of ions present at low concentrations in solutions containing other ions” (Bradshaw, Jerald S., priority 1987, dated 1989).

Settings: ligand as solute in solution

O=C(O)CN(CCN(CC(=O)O)CC(=O)O)CC(=O)O [EDTA, ethylenediaminetetraacetic acid]
log of the equilibrium constant (log K) for interaction with Sr²⁺: 8.73
